The target of assay [1] is Protein farnesyltransferase (Homo sapiens, UniProt P49354+P49356). Nature of the assay: In vitro inhibitory activity against farnesyl transferase. In kind it is protein-complex assay.
Assay [2] has as its target Geranylgeranyl transferase type I (Homo sapiens, UniProt P49354+P53609). As to the kind of experiment: In vitro inhibitory activity against geranylgeranyltransferase-1 (type I). It counts as protein-complex assay.
The target of assay [3] is Protein farnesyltransferase (Mus musculus, UniProt Q61239+Q8K2I1). As to the kind of experiment: Inhibition of Ras farnesylation in Human Ha-Ras-transformed BALB/c 3T3 cells. It counts as functional, cell-based.
Assay [4] concerns the target Protein farnesyl/geranylgeranyl transferase (Homo sapiens) (UniProt P49354+P49356+P53609). Nature of the assay: Selectivity for farnesyl over geranylgeranyl transferase. In kind it is protein-complex assay.

Some results are limits rather than exact numbers.

The IC50 is the concentration that gives 50% inhibition. The EC50 is the concentration needed to bring the measured effect to its halfway point.

Consider `Cn1cncc1CN(CC(=O)N1CCC(C#N)=C(c2cccc3ccccc23)C1)Cc1ccccc1`, for which, in assay [1], the IC50 is 280 nM.
The molecule `Cn1cncc1C[C@H](NCc1ccc(C#N)cc1)C(=O)N1CCC(C#N)=C(c2cccc3ccccc23)C1` registered an IC50 in assay [1] of 130 nM.
With `Cn1cncc1C[C@@H](NCc1ccc(C#N)cc1)C(=O)N1CCC(C#N)=C(c2cccc3ccccc23)C1`, the midpoint of inhibition in assay [2], the IC50, lay at 3500 nM. In assay [3], this molecule yielded an EC50 of 190 nM.
In assay [4], `CCCCN(CCC1CCCCC1)Cc1ccc(C(=O)N[C@@H](CCSC)C(=O)O)c(-c2ccccc2C)c1` showed a Selectivity of 75000. In assay [3], this molecule came in with an EC50 of 16 nM.
In turn, `CSCC[C@H](NC(=O)C1=C(c2ccccc2C)CN(C(=O)OC(CCC2CCCCC2)c2cncs2)CC1)C(=O)O` (some centres not stated) came in with an IC50 in assay [1] of 0.71 nM.
For `CN(Cc1ccc(C#N)cc1)[C@H](Cc1cncn1C)C(=O)N1CCC(C#N)=C(c2cccc3ccccc23)C1`, in assay [3], the EC50 was greater than 100 nM.
In turn, `CSCC[C@H](NC(=O)C1=C(c2ccccc2C)CN(C(=O)N(Cc2ccccc2)Cc2cncs2)CC1)C(=O)O` returned an IC50 in assay [1] of 0.56 nM.
On the same count and under the same terms, for `Cn1cncc1CN(CC(=O)N1CCC(C#N)=C(c2cccc3ccccc23)C1)Cc1ccc(C#N)cc1` the value was 560 nM.
Consider `Cn1cncc1CN[C@H](Cc1ccc(C#N)cc1)C(=O)N1CCC(C#N)=C(c2cccc3ccccc23)C1`, for which the IC50 in assay [1] is 240 nM.
For the molecule `Cn1cncc1CN[C@@H](Cc1ccc(C#N)cc1)C(=O)N1CCC(C#N)=C(c2cccc3ccccc23)C1`, half-maximal inhibition in assay [1] (IC50) was put at 310 nM.

Source of the values: ChEMBL document CHEMBL1136693, “Aryl tetrahydropyridine inhibitors of farnesyltransferase: glycine, phenylalanine and histidine derivatives” (Bioorg Med Chem Lett, 2003).
